Data taken from US9993494B2, “Compositions and methods for treating fibrotic disease” (eFFECTOR Therapeutics, Inc., priority 2014, dated 2018).

System: normal human lung fibroblasts
Assay: Ribosomal profiling: translational efficiency in TGFβ-treated fibroblasts
Format: cell-based
How it was run: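 Cells lysed on ice after a cold PBS wash containing cycloheximide. Ribosome-protected fragments and total mRNA were prepared with the ARTseq kit and sequenced by RNA-Seq. Reads were trimmed, mapped to the human genome and counted uniquely over coding regions per gene, with low-count genes excluded before differential translational-efficiency analysis.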

In the case of TGFβ, the “Log2 TE FANCL” value (ENSG00000115392, 5 replicates) is reported as −1.233, the “Log2 TE IL1R1” value (ENSG00000115594, 5 replicates) is reported as −1.003 and the “Log2 TE PIK3R3” value (ENSG00000117461, 5 replicates) is reported as −1.0571. The “Log2 TE DPH5” value (ENSG00000117543, 5 replicates) was 1.114, the “change in translational profile of DPH5 caused by TGFβ” value (ENSG00000117543, Control vs. TGFβ) was “D (D = <1.0 to 1.5)” and the “Log2 TE CENPF” value (ENSG00000117724, 5 replicates) was −1.237. For the same substance, the “Log2 TE RPS25” value (ENSG00000118181, 5 replicates) was 1.697, the “Log2 TE SGIP1” value (ENSG00000118473, 5 replicates) was −2.768 and the “Log2 TE PPL” value (ENSG00000118898, 5 replicates) was −1.54. For the same substance, the “change in translational profile of PPL caused by TGFβ” value (ENSG00000118898, Control vs. TGFβ) was “B (B = <−1.5 to −2.5)”, the “Log2 TE NR4A3” value (ENSG00000119508, 5 replicates) was −1.931 and the “Log2 TE TEK” value (ENSG00000120156, 5 replicates) was −1.652. For the same substance, the “change in translational profile of PLEKHG1 caused by TGFβ” value (ENSG00000120278, Control vs. TGFβ) was “B (B = <−1.5 to −2.5)”, the “change in translational profile of LIAS caused by TGFβ” value (ENSG00000121897, Control vs. TGFβ) was “D (D = <1.0 to 1.5)” and the “Log2 TE GPSM2” value (ENSG00000121957, 5 replicates) was −1.408. For the same substance, the “change in translational profile of GPSM2 caused by TGFβ” value (ENSG00000121957, Control vs. TGFβ) was “B (B = <−1.5 to −2.5)”, the “change in translational profile of RPL21 caused by TGFβ” value (ENSG00000122026, Control vs. TGFβ) was “E (E = <1.5 to 2.5)” and the “Log2 TE RPL5” value (ENSG00000122406, 5 replicates) was 1.593. The “change in translational profile of RPL5 caused by TGFβ” value (ENSG00000122406, Control vs. TGFβ) was “E (E = <1.5 to 2.5)”, the “change in translational profile of INHBA caused by TGFβ” value (ENSG00000122641, Control vs. TGFβ) was “D (D = <1.0 to 1.5)” and the “Log2 TE CIT” value (ENSG00000122966, 5 replicates) was −3.084. The “change in translational profile of CIT caused by TGFβ” value (ENSG00000122966, Control vs. TGFβ) was “A (A = <−2.5)”, the “Log2 TE ATP8A1” value (ENSG00000124406, 5 replicates) was −2.122 and the “Log2 TE TRERF1” value (ENSG00000124496, 5 replicates) was −1.891. For the same substance, the “Log2 TE RPS10” value (ENSG00000124614, 5 replicates) was 1.211, the “Log2 TE COL21A1” value (ENSG00000124749, 5 replicates) was −1.445 and the “Log2 TE ATP5S” value (ENSG00000125375, 5 replicates) was 1.075. For the same substance, the “Log2 TE RPL23” value (ENSG00000125691, 5 replicates) was 1.604, the “change in translational profile of RPL23 caused by TGFβ” value (ENSG00000125691, Control vs. TGFβ) was “E (E = <1.5 to 2.5)” and the “Log2 TE RTN2” value (ENSG00000125744, 5 replicates) was −1.143. The “Log2 TE LAMP5” value (ENSG00000125869, 5 replicates) was 1.298, the “change in translational profile of LAMP5 caused by TGFβ” value (ENSG00000125869, Control vs. TGFβ) was “E (E = <1.5 to 2.5)” and the “Log2 TE NECAB3” value (ENSG00000125967, 5 replicates) was 1.403. For the same substance, the “change in translational profile of NECAB3 caused by TGFβ” value (ENSG00000125967, Control vs. TGFβ) was “E (E = <1.5 to 2.5)”, the “change in translational profile of COX7C caused by TGFβ” value (ENSG00000127184, Control vs. TGFβ) was “D (D = <1.0 to 1.5)” and the “Log2 TE TNFRSF19” value (ENSG00000127863, 5 replicates) was −1.093. For the same substance, the “Log2 TE ZFP36” value (ENSG00000128016, 5 replicates) was 1.188, the “change in translational profile of LIF caused by TGFβ” value (ENSG00000128342, Control vs. TGFβ) was “D (D = <1.0 to 1.5)” and the “Log2 TE APOBEC3F” value (ENSG00000128394, 5 replicates) was −1.127. The “Log2 TE SMO” value (ENSG00000128602, 5 replicates) was −1.254, the “Log2 TE CGNL1” value (ENSG00000128849, 5 replicates) was −1.023 and the “Log2 TE CD68” value (ENSG00000129226, 5 replicates) was 1.048. The “Log2 TE MTUS1” value (ENSG00000129422, 5 replicates) was −1.149, the “change in translational profile of MTUS1 caused by TGFβ” value (ENSG00000129422, Control vs. TGFβ) was “B (B = <−1.5 to −2.5)” and the “Log2 TE ARHGEF6” value (ENSG00000129675, 5 replicates) was −1.1. For the same substance, the “change in translational profile of ARHGEF6 caused by TGFβ” value (ENSG00000129675, Control vs. TGFβ) was “C (C = <−1.0 to −1.5)”, the “Log2 TE RPL36” value (ENSG00000130255, 5 replicates) was 1.411 and the “change in translational profile of RPL36 caused by TGFβ” value (ENSG00000130255, Control vs. TGFβ) was “E (E = <1.5 to 2.5)”. The “change in translational profile of GDF15 caused by TGFβ” value (ENSG00000130513, Control vs. TGFβ) was “D (D = <1.0 to 1.5)”, the “change in translational profile of ASS1 caused by TGFβ” value (ENSG00000130707, Control vs. TGFβ) was “D (D = <1.0 to 1.5)” and the “Log2 TE EIF2S3” value (ENSG00000130741, 5 replicates) was 1.067. The “change in translational profile of EIF2S3 caused by TGFβ” value (ENSG00000130741, Control vs. TGFβ) was “D (D = <1.0 to 1.5)”, the “Log2 TE RPL27” value (ENSG00000131469, 5 replicates) was 1.519 and the “change in translational profile of RPL27 caused by TGFβ” value (ENSG00000131469, Control vs. TGFβ) was “E (E = <1.5 to 2.5)”. The “Log2 TE TOP2A” value (ENSG00000131747, 5 replicates) was −1.314, the “Log2 TE MATN3” value (ENSG00000132031, 5 replicates) was 1.34 and the “change in translational profile of MATN3 caused by TGFβ” value (ENSG00000132031, Control vs. TGFβ) was “D (D = <1.0 to 1.5)”. The “Log2 TE SPATA6” value (ENSG00000132122, 5 replicates) was −1.925 and the “Log2 TE PPARG” value (ENSG00000132170, 5 replicates) was −3.52.
